Literature values as cited in PMC3073735 (Chemistry & biology, 2011).
Where no end group is shown, it is not given here.

Tested on: ferroportin
Conditions: ref Nemeth, et al., 2006

M21Y: synthetic hepcidin mutant from the literature (DTHFPICIFCCGCCHRSKCGYCCKT-OH; disulfide (positions not given here); ends not checked; UniProt P81172 60-84, looked up, variant M21Y)
activity compared with native hepcidin: comparable activity to native hepcidin
